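Method: 48-hour compound exposure of cells in 96-well plates, five concentrations, linear interpolation of endpoints. GI50 = concentration required for 50% inhibition of growth.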 Calls of active or inactive are those of the source. No stated cut-off is given here; in the data, active = GI50 up to about 1.1 µM and inactive = higher.
Experiments:
Experiment in all cases: DTP human tumour cell line panel, 48 h
786-0 = test system: 786-0
ACHN = test system: ACHN
DMS-114 = test system: DMS-114
HCT-116 = test system: HCT-116
Malme-3M = test system: Malme-3M
NCI-H23 = test system: NCI-H23
OVCAR-4 = test system: OVCAR-4
SF-268 = test system: SF-268
SF-295 = test system: SF-295
SF-539 = test system: SF-539
SK-MEL-28 = test system: SK-MEL-28
SR = test system: SR
UACC-62 = test system: UACC-62
EKVX = test system: EKVX
HCC 2998 = test system: HCC 2998
SK-MEL-5 = test system: SK-MEL-5

Measured: GI50

CN(C)CCCNc1ccc2ncn3c4ccccc4c(=O)c1c23
inactive: 786-0 4.52 µM | ACHN 4.81 µM | DMS-114 10.5 µM | HCT-116 3.48 µM | Malme-3M 13.7 µM | NCI-H23 12.3 µM | OVCAR-4 21.9 µM | SF-268 7.6 µM | SF-295 6.3 µM | SF-539 8.73 µM | SK-MEL-28 31.6 µM | SR 2.94 µM | UACC-62 12.8 µM

O=C(c1ccccc1)c1cn(/N=C\c2ccccc2)c(=O)nc1-c1ccccc1
inactive: 786-0 > 100 µM | ACHN > 100 µM | DMS-114 > 100 µM | EKVX > 100 µM | HCC 2998 > 100 µM | HCT-116 > 100 µM | Malme-3M > 100 µM | NCI-H23 > 100 µM | OVCAR-4 > 100 µM | SF-268 > 100 µM | SF-295 > 100 µM | SF-539 > 100 µM | SK-MEL-28 > 100 µM | SK-MEL-5 > 100 µM | UACC-62 > 100 µM

CC1c2[nH]c3ccccc3c2CCN1O (stereo not drawn)
inactive: 786-0 > 100 µM | ACHN > 100 µM | DMS-114 > 100 µM | EKVX > 100 µM | HCC 2998 > 100 µM | HCT-116 > 100 µM | Malme-3M > 100 µM | NCI-H23 > 100 µM | OVCAR-4 > 100 µM | SF-268 > 100 µM | SF-295 > 100 µM | SF-539 > 100 µM | SK-MEL-28 > 100 µM | SK-MEL-5 > 100 µM | UACC-62 > 100 µM

CN(C)c1n/c(=N/c2ccc3c(c2)OCO3)ss1
inactive: 786-0 70.6 µM | ACHN 84.9 µM | DMS-114 38.6 µM | EKVX 49.9 µM | HCC 2998 44.4 µM | HCT-116 49 µM | Malme-3M > 100 µM | NCI-H23 66.4 µM | OVCAR-4 > 100 µM | SF-268 47.6 µM | SF-295 > 100 µM | SF-539 67.6 µM | SK-MEL-28 > 100 µM | SK-MEL-5 55.3 µM | UACC-62 58.3 µM

CC1(C)CC2(S(=O)(=O)c3ccccc3)ON1CC2S(=O)(=O)c1ccccc1 (stereo not drawn)
inactive: 786-0 > 100 µM | ACHN > 100 µM | DMS-114 67.1 µM | EKVX > 100 µM | HCC 2998 > 100 µM | HCT-116 > 100 µM | Malme-3M > 100 µM | NCI-H23 88.5 µM | OVCAR-4 54.6 µM | SF-268 > 100 µM | SF-295 > 100 µM | SF-539 > 100 µM | SK-MEL-28 86.1 µM | SR 39.4 µM | UACC-62 91.2 µM

CCCNc1ncnc2c1cnn2C
inactive: 786-0 > 100 µM | ACHN > 100 µM | DMS-114 > 100 µM | HCC 2998 > 100 µM | HCT-116 > 100 µM | Malme-3M > 100 µM | NCI-H23 > 100 µM | OVCAR-4 > 100 µM | SF-268 > 100 µM | SF-295 > 100 µM | SF-539 > 100 µM | SK-MEL-28 > 100 µM | SK-MEL-5 > 100 µM | SR > 100 µM | UACC-62 > 100 µM

CC1C[C@H](C)CC(C(O)CC2CC(=O)N(Cc3ccccc3)C(=O)C2)C1O (stereo partly drawn)
inactive: 786-0 > 100 µM | ACHN > 100 µM | DMS-114 > 100 µM | EKVX > 100 µM | HCC 2998 > 100 µM | HCT-116 > 100 µM | Malme-3M > 100 µM | NCI-H23 2.65 µM | OVCAR-4 > 100 µM | SF-268 > 100 µM | SF-295 > 100 µM | SF-539 > 100 µM | SK-MEL-28 > 100 µM | SR > 100 µM | UACC-62 > 100 µM

Reference: ChEMBL document CHEMBL1201862, “PubChem BioAssay data set” (2004)
